How the values were obtained:
human STING = human STING (Homo sapiens, UniProt Q86WV6); test: Fluorescence Thermal Shift assay (binding to STING); settings: STING 0.1 mg/mL, SyproOrange, 25 to 99° C.
Procedure, shortened: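 Human STING (0.1 mg/mL final) preincubated 20 min with compounds in 50 mM Hepes, 150 mM NaCl, pH 7.5, then SyproOrange added. Thermal unfolding 25–99 °C at 0.033 °C/s continuous ramp monitored by fluorescence.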

[1] = test system: CT26 murine colon carcinoma allografts; test: In vivo anti-tumor efficacy in CT26 allografts; set-up: species or system female Balb/C mice; settings: intravenously, once every fifth day on three occasions
Procedure: The efficacy of Example 4, Example 31 and Example 57 was evaluated in established CT26 murine colon carcinoma allografts in female Balb/C mice. Compounds were formulated in 5% ethanol with 10% Captisol in PBS and administered intravenously, once every fifth day on three occasions. The solution was prepared fresh prior to each administration. […] By the end of the study there was one complete response among animals treated at 10 mg/kg of Example 4. […] By the end of the study, on day 43, there was one complete response recorded in group treated at 20 mg/kg of Example 57.

[2] = test system: interferon regulatory factor (IRF) pathway in THP-1 dual cells; test: THP-1 Dual reporter assay, IRF pathway (luciferase); assay type: cell-based; settings: Homo sapiens, THP1-Dual; 18 h stimulation, luminescence; read-out: THP1 Dual EC50 (μM) IRF
Procedure, shortened: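 Luminescence (IRF arm, luciferase under ISG54 minimal promoter with five ISREs) and absorbance at 630 or 655 nm (NF-κB arm, SEAP under IFN-β minimal promoter with NF-κB elements) were measured in supernatants of THP-1 dual cells stimulated 18 h with compound.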

[3] = test system: NF-κB pathway in THP-1 dual cells; test: THP-1 Dual reporter assay, NF-κB pathway (SEAP); assay type: cell-based; settings: Homo sapiens, THP1-Dual; 18 h stimulation, absorbance at 630 or 655 nm; read-out: THP1 Dual EC50 (μM) NFkB
Procedure, shortened: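 Compounds (STING agonists) stimulated THP-1 dual cells for 18 h; the cells carry an ISG54 promoter/ISRE-driven luciferase (IRF) and an IFN-β minimal promoter/NF-κB element-driven SEAP. Luciferase in conditioned medium was read by luminescence immediately; SEAP by absorbance at 630 or 655 nm after 1 or 2 h at 37° C.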

Chain of human STING (Q86WV6 whole entry H232R): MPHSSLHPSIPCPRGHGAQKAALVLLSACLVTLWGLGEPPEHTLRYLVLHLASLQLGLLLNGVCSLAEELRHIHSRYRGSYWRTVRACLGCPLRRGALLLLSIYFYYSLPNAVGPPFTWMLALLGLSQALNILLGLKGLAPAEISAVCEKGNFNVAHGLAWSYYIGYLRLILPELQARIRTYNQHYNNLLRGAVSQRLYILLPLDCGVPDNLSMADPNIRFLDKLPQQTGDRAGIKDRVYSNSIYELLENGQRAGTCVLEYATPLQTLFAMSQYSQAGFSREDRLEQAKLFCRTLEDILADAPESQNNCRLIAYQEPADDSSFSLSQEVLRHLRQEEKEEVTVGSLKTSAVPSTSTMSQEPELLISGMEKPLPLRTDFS

SMILES: Cc1ccc(N2CCC[C@H](N(Cc3ccnc(C)c3)Cc3cn(C4CC4)c4cc(N5CC[C@H](N)C(F)(F)C5)c(F)cc4c3=O)C2)cn1.Cl (single isomer, unassigned) [Example 57]
- hSTING FTS binding assay (ΔT C. °) (human STING): +++ (+++=ΔTm ≥20° C.)
- anti-tumor efficacy (tumor growth vs control group) ([1]; 5 mg/kg): minimal tumor growth delay
- anti-tumor efficacy (tumor growth vs control group) ([1]; 10 mg/kg): moderately efficacious
- anti-tumor efficacy (tumor growth vs control group) ([1]; 20 mg/kg): full efficacious
- complete responses by the end of the study ([1]; 20 mg/kg, day 43): one
- response of CT26 tumors to treatment [1]: responded prominently

SMILES: COc1cc(CN(Cc2cn(C3CC3)c3cc(F)c(F)cc3c2=O)[C@H]2CCCN(c3ccc(N)nc3)C2)ccn1.Cl [Example 4, 3-({[(3S)-1-(6-Aminopyridin-3-yl)piperidin-3-yl][(2-methoxypyridin-4-yl)methyl]amino}methyl)-1-cyclopropyl-6,7-difluoro-1,4-dihydroquinolin-4-one hydrochloride]
- hSTING FTS binding assay (ΔT C. °) (human STING): +++ (+++=ΔTm ≥20° C.)
- EC50 [2]: < 1 µM
- EC50 [3]: < 1 µM
- anti-tumor efficacy (tumor growth vs control group) ([1]; 7 mg/kg): efficacious
- anti-tumor efficacy (tumor growth vs control group) ([1]; 10 mg/kg): efficacious
- complete responses by the end of the study ([1]; 10 mg/kg): one
- response of CT26 tumors to treatment [1]: responded prominently

SMILES: Cc1ccc(N2CCC[C@H](N(Cc3ccnc(C)c3)Cc3cn(C4CC4)c4cc(N5CCC[C@H](O)C5)c(F)cc4c3=O)C2)cn1.Cl [Example 31, 1-cyclopropyl-6-fluoro-7-[(3S)-3-hydroxypiperidin-1-yl]-3-({[(3S)-1-(6-methylpyridin-3-yl)piperidin-3-yl][(2-methylpyridin-4-yl)methyl]amino}methyl)-1,4-dihydroquinolin-4-one hydrochloride]
- hSTING FTS binding assay (ΔT C. °) (human STING): +++ (+++=ΔTm ≥20° C.)
- EC50 [2]: < 1 µM
- EC50 [3]: < 1 µM
- anti-tumor efficacy (tumor growth vs control group) ([1]; 7 mg/kg): slight tumor growth delay
- anti-tumor efficacy (tumor growth vs control group) ([1]; 15 mg/kg): prominently efficacious
- anti-tumor efficacy (tumor growth vs control group) ([1]; 30 mg/kg): prominently efficacious
- complete responses by the end of the study ([1]; 30 mg/kg, day 43): two
- response of CT26 tumors to treatment [1]: responded prominently

SMILES: CN[C@H]1CCN(c2cc3c(cc2F)c(=O)c(CN(Cc2ccnc(C)c2)[C@H]2CCCN(c4ccc(C)nc4)C2)cn3C2CC2)C1.Cl [Example 58, 1-cyclopropyl-6-fluoro-7-[(3S)-3-(methylamino)pyrrolidin-1-yl]-3-({[(3S)-1-(6-methylpyridin-3-yl)piperidin-3-yl][(2-methylpyridin-4-yl)methyl]amino}methyl)-1,4-dihydroquinolin-4-one hydrochloride]
- hSTING FTS binding assay (ΔT C. °) (human STING): +++ (+++=ΔTm ≥20° C.)
- EC50 [2]: < 1 µM
- EC50 [3]: < 1 µM

SMILES: Cc1ccc(N2CCC[C@H](N(Cc3ccnc(C)c3)Cc3cn(C4CC4)c4cc(N5CCCC(C(=O)O)C5)c(F)cc4c3=O)C2)cn1 (stereo partly drawn) [Example 66, 1-[1-cyclopropyl-6-fluoro-3-({[(3S)-1-(6-methylpyridin-3-yl)piperidin-3-yl][(2-methylpyridin-4-yl)methyl]amino}methyl)-4-oxo-1,4-dihydroquinolin-7-yl]piperidine-3-carboxylic acid]
- hSTING FTS binding assay (ΔT C. °) (human STING): +++ (+++=ΔTm ≥20° C.)
- EC50 [2]: 1 to 10 µM
- EC50 [3]: 1 to 10 µM

SMILES: Cc1ccc(N2CCC[C@H](N(Cc3ccnc(C)c3)Cc3cn(C4CC4)c4cc(N5CCC(C(=O)O)CC5)c(F)cc4c3=O)C2)cn1 [Example 67, 1-[1-cyclopropyl-6-fluoro-3-({[(3S)-1-(6-methylpyridin-3-yl)piperidin-3-yl][(2-methylpyridin-4-yl)methyl]amino}methyl)-4-oxo-1,4-dihydroquinolin-7-yl]piperidine-4-carboxylic acid]
- hSTING FTS binding assay (ΔT C. °) (human STING): +++ (+++=ΔTm ≥20° C.)
- EC50 [2]: 1 to 10 µM
- EC50 [3]: 1 to 10 µM

SMILES: Cc1ccc(N2CCC[C@H](N(Cc3ccnc(C)c3)Cc3cn(C4CC4)c4cc(N5CCC6NCCC6C5)c(F)cc4c3=O)C2)cn1 (stereo partly drawn) [Example 68, 1-cyclopropyl-6-fluoro-3-({[(3S)-1-(6-methylpyridin-3-yl)piperidin-3-yl][(2-methylpyridin-4-yl)methyl]amino}methyl)-7-{octahydro-1H-pyrrolo[3,2-c]pyridin-5-yl}-1,4-dihydroquinolin-4-one]
- hSTING FTS binding assay (ΔT C. °) (human STING): +++ (+++=ΔTm ≥20° C.)
- EC50 [2]: < 1 µM
- EC50 [3]: < 1 µM

SMILES: Cc1ccc(N2C[C@@H](F)C[C@H](N(Cc3ccnc(C)c3)Cc3cn(C4CC4)c4cc(OCCO)c(F)cc4c3=O)C2)cn1 [Example 75, 1-cyclopropyl-6-fluoro-3-({[(3S,5S)-5-fluoro-1-(6-methylpyridin-3-yl)piperidin-3-yl][(2-methylpyridin-4-yl)methyl]amino}methyl)-7-(2-hydroxyethoxy)-1,4-dihydroquinolin-4-one]
- hSTING FTS binding assay (ΔT C. °) (human STING): +++ (+++=ΔTm ≥20° C.)
- EC50 [2]: < 1 µM
- EC50 [3]: < 1 µM

SMILES: Cc1cc(CN(Cc2cn(C3CC3)c3cc(N4CC[C@@H](O)C4)c(F)cc3c2=O)[C@H]2CCCN(c3cccnc3)C2)ccn1 [Example 78, 1-Cyclopropyl-6-fluoro-7-[(3R)-3-hydroxypyrrolidin-1-yl]-3-({[(2-methylpyridin-4-yl)methyl][(3S)-1-(pyridin-3-yl)piperidin-3-yl]amino}methyl)-1,4-dihydroquinolin-4-one]
- hSTING FTS binding assay (ΔT C. °) (human STING): +++ (+++=ΔTm ≥20° C.)
- EC50 [2]: < 1 µM
- EC50 [3]: < 1 µM

SMILES: Cc1cnc(N2C[C@@H](F)C[C@H](N(Cc3ccnc(C)c3)Cc3cn(C4CC4)c4cc(N5CCC[C@H](O)C5)c(F)cc4c3=O)C2)cn1 [Example 82, 1-cyclopropyl-6-fluoro-3-({[(3S,5S)-5-fluoro-1-(5-methylpyrazin-2-yl)piperidin-3-yl][(2-methylpyridin-4-yl)methyl]amino}methyl)-7-[(3S)-3-hydroxypiperidin-1-yl]-1,4-dihydroquinolin-4-one]
- hSTING FTS binding assay (ΔT C. °) (human STING): ++ (++=10<ΔTm <20° C.)
- EC50 [2]: < 1 µM
- EC50 [3]: < 1 µM

SMILES: Cc1cc(CN(Cc2cn(C3CC3)c3cc(N4CCC[C@H](O)C4)c(F)cc3c2=O)[C@H]2CCCN(c3cccnc3)C2)ccn1.Cl [Example 86, 1-cyclopropyl-6-fluoro-7-[(3S)-3-hydroxypiperidin-1-yl]-3-({[(2-methylpyridin-4-yl)methyl][(3S)-1-(pyridin-3-yl)piperidin-3-yl]amino}methyl)-1,4-dihydroquinolin-4-one hydrochloride]
- hSTING FTS binding assay (ΔT C. °) (human STING): +++ (+++=ΔTm ≥20° C.)
- EC50 [2]: < 1 µM
- EC50 [3]: < 1 µM

Source: patent publication US12643879B2, “Functionalized heterocyclic compounds as modulators of stimulator of interferon genes (STING)” (RYVU THERAPEUTICS S.A., priority 2019, dated 2026)
